Consider three molecules from paper PMC3006138, “Fexinidazole – A New Oral Nitroimidazole Drug Candidate Entering Clinical Development for the Treatment of Sleeping Sickness” (PLoS Neglected Tropical Diseases, 2010).

“Also recorded” adds a separate entry of the source.

What is called NOAEL is the highest tested level that showed no adverse finding.

Data set [1] concerns cytochrome P450 (CYP450) enzymes. Nature of the data set: In vitro CYP-450 metabolism (whole panel). The class given is in vitro ADME, human. The note with it: 1.0 µM, up to 60 min. As for the experimental part:
Duplicate samples of human recombinant CYP enzyme isotypes CYP1A2, CYP2B6, CYP2C8, CYP2C9, CYP2C19, CYP2D6, CYP3A4, CYP3A5 (10–30 pmol/mL) with NADPH as cofactor were incubated with fexinidazole, fexinidazole sulfoxide, or fexinidazole sulfone at a concentration of 1.0 µM for up to 60 min (pH 7.4, 37°C). Detection of the compounds was via HPLC-MS.

Another data set has as its system Salmonella typhimurium. In words: Ames test. The class given is cell-based. The conditions noted are these: for bacterial mutagenicity: standard strains, with and without S9. On the procedure: To evaluate bacterial mutagenicity, a full Ames test was carried out on fexinidazole and fexinidazole sulfone using the five strains of Salmonella typhimurium recommended by the relevant ICH regulatory guideline, namely TA1535, TA1537, TA98, TA100, and TA102, as well as the corresponding nitroreductase-deficient strains, [48]. Standard bacterial plate incorporation assays were carried out, essentially as described by Maron and Ames. Tests on fexinidazole were carried out with and without rat liver post-mitochondrial fraction plus co-factors (S9 mix) to provide a mammalian metabolic activation system. The S9 fraction was prepared from Spague-Dawley rats pretreated with the mixed cytochrome P 450 enzyme inducer Aroclor 1254. Tests on fexinidazole sulfone were carried out only in the absence of rat liver S9 (as this is a metabolite). After incubation at 37°C for three days, plates were scored for mutant colonies using a Colony Counter plate reader.

A short description of data set [2]: Chemical stability in incubation medium alone. The note with it: fexinidazole 10 µM, Leibovitz medium alone, 120 min. The class given is physicochemical. As for the experimental part:
Incubations were performed in duplicate in a 48-well plate under shaking. Sampling was performed using an automatic liquid handling system (Multiprobe II EX, Packard). […] in acetonitrile (internal standard) were added, and samples centrifuged at 2000 rpm for 20 min. The supernatant was analyzed by LC-MS/MS. The chemical stability of fexinidazole was checked by incubating the compound at 37°C in the medium alone at t = 0 and 120 minutes. For the determination of phase I and phase II activity of hepatocytes, 7-ethoxycoumarin (7- […] incubated under the same conditions as fexinidazole. Aliquots of incubates were taken at 0, 10, 20, 30, 60 and 120 minutes and processed as fexinidazole samples. […] Metabolite Profile Study […] mouse, rat, dog, monkey and human hepatocytes (300000 cells/mL for the mouse and 1 million cells/mL for the other species) in a final incubation volume of 2 mL Leibovitz L-15 medium, at 37°C. Aliquots of the incubation samples were taken at t = 0, 30 and 120 minutes; the metabolism was stopped by the addition of an equal volume of cold acetonitrile and the samples centrifuged at 1500 rpm for 20 min. The supernatant was stored at -20°C until analysis. Control incubations were performed with the compound in the medium alone for 120 minutes. […] Nerviano Medical Sciences […] For the determination of phase I and phase II activities of hepatocytes, 7-ethoxycoumarin (7- […] incubated under the same conditions as fexinidazole. Aliquots of incubates were taken at 0, […] 7.5.2. Metabolite Profile Study […] pooled human hepatocytes (1 million cells/mL) in a final incubation volume of 2 mL Leibovitz L-15 medium, at 37°C. Aliquots of the incubation samples were taken at t = 0, 30 and 120 minutes; the metabolism was stopped by the addition of an equal volume of cold acetonitrile and the samples centrifuged at 1100 rpm for 20 min. The supernatant was stored at -20°C until analysis. Control incubations were performed with the compound in the medium alone for 120 minutes. […] Valco Divert Valve Step Total time (min) Position […]

The nature of data set [3]: Irwin's test of general behaviour and body temperature. The class given is in vivo, rat. On the procedure: Neurobehavioural safety was carried out using the Irwin's test of general behaviour and body temperature in male rats, [41]. […] General behaviour was assessed before treatment and 2 h and 24 h after vehicle or drug administration. A defined set of behavioural observations using an arbitrary intensity scale of 0 (no behavioural change) to 8 was made before treatment and 2 h and 24 h after treatment. Factors present in normal animals (e.g. alertness, mobility) were scored as 4; potentiation or depression of these factors was indicated as higher or lower integers, respectively. Factors absent in normal animals were scored from 0 (normal) to 8.
Exp. Treatment(a) Dose Number of Session (mg/kg) Animals/Group
(a) Three animals/group were dosed each day of study.
6.3.2. Allocation/Randomization
The animals were selected and distributed into experimental groups using random number tables (Fisher and Yates).
6.3.3. Dose Administration
Route and Method Oral, gastric gavage
Dosage volumes were adjusted to the individual animal body weights recorded on the day of […]
6.3.4. Dose Justification
In this study, the top dose of […]
dose went from 500 to 1000 mg/kg/day.
6.4. Experimental procedure
6.4.1. Behavioral observations
Behavior of the animals was assessed before treatment, 2 hours and 24 hours after treatment.
After treatment, animals were put in their home cages. Observation was performed in 5 steps:
• Home cage observations: piloerection, bizarre behavior, exophthalmus, respiration, tremors, twitches, convulsions
Nerviano Medical Sciences

A short description of a further data set: in vivo. The conditions noted are these: both sexes, beagle, dog, po. On the procedure: In the dog repeated-dose toxicokinetic study, fexinidazole was given orally by gavage once a day for 28 days to five (control and high dose) or three (low and mid dose) beagle dogs/sex/dose at the doses of 0 (control group), 50, 200, or 800 mg/kg/day. The control group received the vehicle alone (same as above). Systemic exposure to fexinidazole and of its sulfoxide and sulfone metabolites was evaluated on days 1, 14 and 28 in the same animals used for the toxicological study. Samples were taken at predose, and 30 min, 1, 2, 4, 8 and 24 h after dosing on days 1, 14, and 28, and in addition at 48 and 72 h after treatment on day 28.

`Cn1c([N+](=O)[O-])cnc1COc1ccc(S(C)(=O)=O)cc1` [Fexinidazole sulfone]: in data set [1], the “metabolism by the enzymes tested” value is reported as “none of the enzymes tested metabolised”. The bacterial mutagenicity entry in the data set with Salmonella typhimurium was “gave similar results to fexinidazole”.
With `Cn1c([N+](=O)[O-])cnc1COc1ccc([S+](C)[O-])cc1` (centres unmarked) [Fexinidazole sulfoxide], in data set [2], the “% of total drug related material” value is listed as 18%. In addition, the “metabolism by the enzymes tested” value in data set [1] is “none of the enzymes tested metabolised”.
Take `CSc1ccc(OCc2ncc([N+](=O)[O-])n2C)cc1` [Fexinidazole, 1-methyl-2-((p-(methylthio)phenoxy)methyl)-5-nitroimidazole]: the Body temperature in data set [3] (100 mg/kg, 2 hours) was 38.3 ± 0.3 °C; in data set [3] (100 mg/kg, 24 hours) it was 38.2 ± 0.3 °C; in data set [3] (300 mg/kg, 2 hours) it was 38.1 ± 0.5 °C; in data set [3] (300 mg/kg, 24 hours) it was 37.9 ± 0.6 °C; in data set [3] (1000 mg/kg, 2 hours), 38.3 ± 0.3 °C; in data set [3] (1000 mg/kg, 24 hours), 38.1 ± 0.3 °C. In addition, the “effects on general behaviour and body temperature” value in data set [3] (100, 300 or 1000 mg/kg po) was “no meaningful effects; also recorded: no effects were observed”. In addition, in data set [3] (single oral dose), the “No-Observed-Effect-Level on general behavior and body temperature” value is reported as at least 1000 mg/kg. In addition, the “% of total drug related material” value is reported as “about 84%” in data set [2] and 82% in data set [2] (listed as P). Also, the mutagenic activity result with Salmonella typhimurium (nitroreductase-deficient Salmonella strains) is “significantly reduced or abolished”. In the data set with Salmonella typhimurium, the bacterial mutagenicity entry was “elicited both frameshift and base substitution mutations; also recorded: mutagenic in the Ames test”. For the same molecule, the no observed adverse effect level (NOAEL) at 28 days in the data set “in vivo” stood at 200 mg/kg/day.
